Data published in patent US20230064983A1 (priority 2020, published 2023).
Like-named read-outs stand apart in the source and are kept apart here.

Key:
[1] = target: T1, EGFR with insertion SVD between D770 and N771 (mutEGFR D770_N771insSVD) (Homo sapiens, UniProt P00533, DUP768-770); assay: Exon20-Mutant-EGFR(D770_N771insSVD) kinase assay (TR-FRET); assay type: biochemical; conditions: 2 mM ATP, Table 2
T1 construct: amino acids R669 to A1210; made in house; host or cells: Sf9 insect cells (baculovirus)

[2] = target: T2, Bub1 (Homo sapiens, UniProt O43683); assay: Bub1 high ATP kinase assay (TR-FRET); assay type: biochemical; conditions: 2 mM ATP, Table 3
T2 construct: catalytic domain of human Bub1 (amino acids 704-1085); His6 (N); made in house; host or cells: insect cells (Hi5)
In short: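 Read-out was the 665/620 nm TR-FRET ratio after 1 h at 22 °C with EDTA stop mix (streptavidin-XL665, anti-phosphoserine antibody, Eu anti-mouse IgG). Beforehand, a biotinylated peptide was phosphorylated for 60 min at 22 °C under high ATP by His6-tagged human Bub1 residues 704-1085 expressed in Hi5 cells, about 200 ng/ml.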

[3] = target: Ba/F3-EGFR-D770_N771insSVD cells (Homo sapiens, UniProt P00533, DUP768-770, cells depend on it); assay: Ba/F3 cell survival assay, EGFR D770_N771insSVD; assay type: cell-based; conditions: Cell Titer-Glo, 48 h, without IL-3; Table 4; read-out: BA/F3 (insSVD) IC50
[4] = target: Ba/F3-EGFR-WT cells (Homo sapiens, UniProt P00533); assay: Ba/F3 cell survival assay, wild type EGFR; assay type: cell-based; conditions: Cell Titer-Glo, 48 h, with 10 ng/mL EGF; Table 4; read-out: BA/F3 (wild type) IC50
[5] = Bub1 high ATP (2 mM) IC50, TR-FRET

Chain of Ba/F3-EGFR-WT cells (P00533 whole entry, looked up, change not shown): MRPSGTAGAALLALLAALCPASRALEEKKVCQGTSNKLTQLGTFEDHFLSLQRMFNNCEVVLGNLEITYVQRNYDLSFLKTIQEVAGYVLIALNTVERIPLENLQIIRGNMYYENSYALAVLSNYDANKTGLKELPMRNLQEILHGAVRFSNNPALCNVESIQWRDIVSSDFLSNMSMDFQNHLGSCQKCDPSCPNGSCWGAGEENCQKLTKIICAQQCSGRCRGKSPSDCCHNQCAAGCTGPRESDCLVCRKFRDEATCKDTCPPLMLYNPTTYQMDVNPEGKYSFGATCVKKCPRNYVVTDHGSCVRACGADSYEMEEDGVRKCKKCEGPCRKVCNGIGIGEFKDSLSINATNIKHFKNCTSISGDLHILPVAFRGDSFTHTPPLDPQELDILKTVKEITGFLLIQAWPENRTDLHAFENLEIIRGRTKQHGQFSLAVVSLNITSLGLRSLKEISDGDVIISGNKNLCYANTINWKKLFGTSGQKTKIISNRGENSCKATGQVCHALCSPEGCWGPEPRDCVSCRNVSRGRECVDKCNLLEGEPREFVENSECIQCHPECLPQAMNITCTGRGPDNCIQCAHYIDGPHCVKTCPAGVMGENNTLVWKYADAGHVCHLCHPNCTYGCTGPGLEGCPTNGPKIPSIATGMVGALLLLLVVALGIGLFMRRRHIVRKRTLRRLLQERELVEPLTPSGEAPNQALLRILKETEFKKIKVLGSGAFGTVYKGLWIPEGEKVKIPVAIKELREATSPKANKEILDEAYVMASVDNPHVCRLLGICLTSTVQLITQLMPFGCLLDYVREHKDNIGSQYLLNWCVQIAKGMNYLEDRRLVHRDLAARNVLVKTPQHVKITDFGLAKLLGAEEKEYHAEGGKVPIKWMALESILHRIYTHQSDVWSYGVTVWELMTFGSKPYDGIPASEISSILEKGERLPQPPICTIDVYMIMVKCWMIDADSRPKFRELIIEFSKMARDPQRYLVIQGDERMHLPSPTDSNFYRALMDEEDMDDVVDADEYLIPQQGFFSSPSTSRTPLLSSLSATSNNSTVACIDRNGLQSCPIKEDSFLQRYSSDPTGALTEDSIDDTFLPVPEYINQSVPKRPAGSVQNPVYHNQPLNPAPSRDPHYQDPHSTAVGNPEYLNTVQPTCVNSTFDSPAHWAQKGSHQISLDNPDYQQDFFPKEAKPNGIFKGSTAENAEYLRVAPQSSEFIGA
T2 sequence (O43683 704-1085): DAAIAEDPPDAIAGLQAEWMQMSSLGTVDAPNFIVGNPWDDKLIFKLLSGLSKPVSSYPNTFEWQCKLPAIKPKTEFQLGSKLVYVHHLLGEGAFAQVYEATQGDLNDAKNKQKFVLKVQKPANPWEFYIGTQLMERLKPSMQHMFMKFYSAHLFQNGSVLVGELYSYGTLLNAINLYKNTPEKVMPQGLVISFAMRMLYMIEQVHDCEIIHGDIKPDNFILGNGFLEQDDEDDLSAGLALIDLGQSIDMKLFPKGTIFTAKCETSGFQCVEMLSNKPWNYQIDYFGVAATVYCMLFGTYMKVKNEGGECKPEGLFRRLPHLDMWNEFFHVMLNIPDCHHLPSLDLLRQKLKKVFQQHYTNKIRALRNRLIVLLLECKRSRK
Chain of Ba/F3-EGFR-D770_N771insSVD cells (P00533 with tags, fused parts or gaps DUP768-770): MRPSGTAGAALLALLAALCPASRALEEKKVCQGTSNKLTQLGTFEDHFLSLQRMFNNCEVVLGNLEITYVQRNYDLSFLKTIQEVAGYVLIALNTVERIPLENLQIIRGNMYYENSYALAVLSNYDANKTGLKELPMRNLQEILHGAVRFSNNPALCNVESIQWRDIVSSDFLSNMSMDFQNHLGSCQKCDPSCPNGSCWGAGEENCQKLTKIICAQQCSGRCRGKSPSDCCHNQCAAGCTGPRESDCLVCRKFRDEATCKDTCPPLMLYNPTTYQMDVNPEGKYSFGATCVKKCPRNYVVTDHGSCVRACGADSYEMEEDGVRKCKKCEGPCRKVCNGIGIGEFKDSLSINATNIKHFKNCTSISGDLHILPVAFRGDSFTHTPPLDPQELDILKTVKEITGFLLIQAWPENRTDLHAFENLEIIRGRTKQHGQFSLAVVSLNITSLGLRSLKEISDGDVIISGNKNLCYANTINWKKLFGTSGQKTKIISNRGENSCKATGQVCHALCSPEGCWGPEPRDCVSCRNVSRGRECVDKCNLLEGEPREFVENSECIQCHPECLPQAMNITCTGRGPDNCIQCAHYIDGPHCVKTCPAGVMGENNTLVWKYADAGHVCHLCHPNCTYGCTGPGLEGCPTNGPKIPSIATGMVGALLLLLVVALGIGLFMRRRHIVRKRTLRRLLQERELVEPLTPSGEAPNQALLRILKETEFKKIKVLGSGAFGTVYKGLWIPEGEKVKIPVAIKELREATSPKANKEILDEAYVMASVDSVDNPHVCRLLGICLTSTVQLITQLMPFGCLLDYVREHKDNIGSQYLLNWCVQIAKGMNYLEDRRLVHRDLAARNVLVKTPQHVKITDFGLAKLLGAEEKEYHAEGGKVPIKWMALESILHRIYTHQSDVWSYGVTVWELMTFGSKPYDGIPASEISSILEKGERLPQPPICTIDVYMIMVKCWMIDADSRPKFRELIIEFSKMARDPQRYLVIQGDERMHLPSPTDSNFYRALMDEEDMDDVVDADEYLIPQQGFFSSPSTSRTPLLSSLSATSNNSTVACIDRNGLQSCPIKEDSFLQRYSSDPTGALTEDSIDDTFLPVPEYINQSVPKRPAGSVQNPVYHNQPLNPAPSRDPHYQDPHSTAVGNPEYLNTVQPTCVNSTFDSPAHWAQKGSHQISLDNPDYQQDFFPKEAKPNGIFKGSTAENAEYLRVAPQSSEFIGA
T1 sequence (P00533 other isoform, or with tags, fused parts or gaps DUP768-770): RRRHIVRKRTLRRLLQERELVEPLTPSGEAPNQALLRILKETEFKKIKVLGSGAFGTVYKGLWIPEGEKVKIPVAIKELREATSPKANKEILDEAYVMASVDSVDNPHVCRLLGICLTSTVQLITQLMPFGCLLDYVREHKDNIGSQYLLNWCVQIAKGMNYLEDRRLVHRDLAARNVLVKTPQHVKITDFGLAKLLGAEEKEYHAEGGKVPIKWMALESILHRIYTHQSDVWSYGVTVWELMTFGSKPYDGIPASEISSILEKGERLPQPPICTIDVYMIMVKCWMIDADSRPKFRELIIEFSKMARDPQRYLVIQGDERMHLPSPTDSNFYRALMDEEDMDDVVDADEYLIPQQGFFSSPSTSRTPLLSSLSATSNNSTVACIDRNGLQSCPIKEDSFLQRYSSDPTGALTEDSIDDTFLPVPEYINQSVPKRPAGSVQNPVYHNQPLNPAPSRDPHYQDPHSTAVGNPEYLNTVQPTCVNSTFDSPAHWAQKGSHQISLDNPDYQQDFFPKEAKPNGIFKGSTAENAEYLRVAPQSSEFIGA

Row | mutEGFR (D770_N771insSVD) kinase assay IC50 [1] [nM] | IC50 [2, 5] [nM] | IC50 ([2]; read-out: Bub1 high ATP (2 mM) IC50, TR-FRET) [nM] | Structure (SMILES) | GI50 [3] [nM] | GI50 [4] [nM]
1 | 0.473 | > 20000 | – | COc1c(Cl)cccc1Nc1c(-c2ccncc2OCC2(C)CCO2)[nH]c2c1C(=O)NCC2CCO (single isomer, unassigned) [Example 21, 3-(3-chloro-2-methoxyanilino)-7-(2-hydroxyethyl)-2-{3-[(2-methyloxetan-2-yl)methoxy]pyridin-4-yl}-1,5,6,7-tetrahydro-4H-pyrrolo[3,2-c]pyridin-4-one] | 67.9 | 943
2 | 0.139 | 5390 | – | COc1c(Cl)cccc1Nc1c(-c2ccncc2OCC(C)(C)OC)[nH]c2c1C(=O)NCC2CCO (single isomer, unassigned) [Example 14, 3-(3-chloro-2-methoxyanilino)-7-(2-hydroxyethyl)-2-[3-(2-methoxy-2-methylpropoxy)pyridin-4-yl]-1,5,6,7-tetrahydro-4H-pyrrolo[3,2-c]pyridin-4-one] | 21 | 262
3 | 0.72 | > 20000 | – | COc1c(Cl)cccc1Nc1c(-c2ccncc2OC[C@@H]2CCCO2)[nH]c2c1C(=O)NCC2CCC(F)(F)F (single isomer, unassigned) [Example 99] | 45.9 | 846
4 | 0.148 | 3360 | – | Cc1c(Cl)cccc1Nc1c(-c2ccncc2OC[C@@H]2CCCO2)[nH]c2c1C(=O)NCC2C (mixture of isomers) [Example 58, 3-(3-chloro-2-methyl-anilino)-7-methyl-2-(3-{[(2S)-oxolan-2-yl]methoxy}pyridin-4-yl)-1,5,6,7-tetrahydropyrrolo[3,2-c]pyridin-4-one] | 72.9 | 1250
5 | 0.526 | 3590 | – | CCc1c(Cl)cccc1Nc1c(-c2ccncc2OC[C@@H]2CCCO2)[nH]c2c1C(=O)N[C@H](C)C2 [Example 109, (6R)-3-(3-chloro-2-ethylanilino)-6-methyl-2-(3-{[(2S)-oxolan-2-yl]methoxy}pyridin-4-yl)-1,5,6,7-tetrahydro-4H-pyrrolo[3,2-c]pyridin-4-one] | 66.9 | 944
6 | 0.26 | > 20000 | – | COc1c(Cl)cccc1Nc1c(-c2ccncc2OCC2COC(C)(C)CO2)[nH]c2c1C(=O)N[C@H](C)C2 (single isomer, unassigned) [Example 78] | 20.7 | 488
7 | 0.276 | 13700 | – | COc1c(Cl)cccc1Nc1c(-c2ccncc2OC[C@@H]2COCCN2C)[nH]c2c1C(=O)NCC2CCO (single isomer, unassigned) [Example 116] | 169 | 2030
8 | 0.504 | – | > 20000 | COc1c(Cl)cccc1Nc1c(-c2ccncc2OCC2COC(C)(C)CO2)[nH]c2c1C(=O)NCC2C (single isomer, unassigned) [Example 95, 3-(3-chloro-2-methoxy-anilino)-2-[3-[(5,5-dimethyl-1,4-dioxan-2-yl)methoxy]-4-pyridyl]-7-methyl-1,5,6,7-tetrahydropyrrolo[3,2-c]pyridin-4-one] | 14.9 | 415
9 | 0.315 | 479 | – | COc1c(Cl)cccc1Nc1c(-c2ccncc2OCC2COCCO2)[nH]c2c1C(=O)NC1(CCC1)C2 (single isomer, unassigned) [Example 124, 3-(3-chloro-2-methoxy-anilino)-2-[3-(1,4-dioxan-2-ylmethoxy)-4-pyridyl]spiro[5,7-dihydro-1H-pyrrolo[3,2-c]pyridine-6,1′-cyclobutane]-4-one] | 26 | 513
10 | 0.279 | 1100 | – | COc1c(Cl)cccc1Nc1c(-c2ccncc2OC[C@@H]2CCCO2)[nH]c2c1C(=O)NC1(CCC1)C2 [Example 126, 3′-(3-chloro-2-methoxyanilino)-2′-(3-{[(2S)-oxolan-2-yl]methoxy}pyridin-4-yl)-1′,7′-dihydrospiro[cyclobutane-1,6′-pyrrolo[3,2-c]pyridin]-4′(5′H)-one] | 46.4 | 814
11 | 0.213 | 6220 | – | C[C@@H]1Cc2[nH]c(-c3ccncc3OCC3COCCO3)c(Nc3cccc(F)c3CC(F)F)c2C(=O)N1 (stereo partly drawn) [Example 108, (6R)-3-[2-(2,2-difluoroethyl)-3-fluoro-anilino]-2-[3-(1,4-dioxan-2-ylmethoxy)-4-pyridyl]-6-methyl-1,5,6,7-tetrahydropyrrolo[3,2-c]pyridin-4-one] | 141 | 1400
12 | 0.141 | 5410 | – | COc1c(Cl)cccc1Nc1c(-c2ccncc2OCC2COCCO2)[nH]c2c1C(=O)N[C@H](C)C2 (single isomer, unassigned) [Example 25] | 25.9 | 358
13 | 0.157 | 4870 | – | COc1c(Cl)cccc1Nc1c(-c2ccncc2OCC(C)OC)[nH]c2c1C(=O)N[C@H](C)C2 (single isomer, unassigned) [Example 81] | 44 | 583
14 | 0.324 | 3700 | – | COCC(C)Oc1cnccc1-c1[nH]c2c(c1Nc1cccc(Cl)c1C)C(=O)N[C@H](C)C2 (stereo partly drawn) [Example 105, (6R)-3-(3-chloro-2-methylanilino)-2-{3-[(1-methoxypropan-2-yl)oxy]pyridin-4-yl}-6-methyl-1,5,6,7-tetrahydro-4H-pyrrolo[3,2-c]pyridin-4-one] | 44.7 | 884
15 | 0.394 | 1480 | – | COc1c(Cl)cccc1Nc1c(-c2ccncc2OCC2COC(C)(C)CO2)[nH]c2c1C(=O)NC1(CC1)C2 (stereo not drawn) [Example 132, 3′-(3-chloro-2-methoxyanilino)-2′-{3-[(5,5-dimethyl-1,4-dioxan-2-yl)methoxy]pyridin-4-yl}-1′,7′-dihydrospiro[cyclopropane-1,6′-pyrrolo[3,2-c]pyridin]-4′(5′H)-one] | 44.9 | 986
16 | 0.849 | > 20000 | – | COc1c(Cl)cccc1Nc1c(-c2ccncc2OCC2CCCCN2C)[nH]c2c1C(=O)N[C@H](C)C2 (mixture of isomers) [Example 83, (6R)-3-(3-chloro-2-methoxy-anilino)-6-methyl-2-{3-[(1-methyl-2-piperidyl)methoxy]-4-pyridyl}-1,5,6,7-tetrahydropyrrolo[3,2-c]pyridin-4-one] | 24.6 | 669
17 | 0.172 | > 20000 | – | COc1c(Cl)cccc1Nc1c(-c2ccncc2OC[C@@H]2CN(CC(F)F)CCO2)[nH]c2c1C(=O)N[C@H](C)C2 [Example 12, (6R)-3-(3-chloro-2-methoxyanilino)-2-(3-{[(2S)-4-(2,2-difluoroethyl)morpholin-2-yl]methoxy}pyridin-4-yl)-6-methyl-1,5,6,7-tetrahydro-4H-pyrrolo[3,2-c]pyridin-4-one] | 48.7 | 719
18 | 0.51 | 1440 | – | COc1c(Cl)cccc1Nc1c(-c2ccncc2OC[C@@H]2CCCCO2)[nH]c2c1C(=O)NC1(CCC1)C2 [Example 127, 3′-(3-chloro-2-methoxyanilino)-2′-(3-{[(2S)-oxan-2-yl]methoxy}pyridin-4-yl)-1′,7′-dihydrospiro[cyclobutane-1,6′-pyrrolo[3,2-c]pyridin]-4′(5′H)-one] | 12.1 | 406
19 | 0.198 | 6190 | – | COc1c(Cl)cccc1Nc1c(-c2ccncc2OCC2COCCO2)[nH]c2c1C(=O)N[C@@H]1CCC[C@H]21 (single isomer, unassigned) [Example 54] | 42.4 | 675
20 | 0.0854 | 5390 | – | COc1c(Cl)cccc1Nc1c(-c2ccncc2OC[C@@H]2CCCO2)[nH]c2c1C(=O)NC(C)C2 (mixture of isomers) [Example 3, 3-(3-chloro-2-methoxyanilino)-6-methyl-2-(3-{[(2S)-oxolan-2-yl]methoxy}pyridin-4-yl)-1,5,6,7-tetrahydro-4H-pyrrolo[3,2-c]pyridin-4-one] | 28.5 | 328
21 | 0.257 | 1310 | – | COc1c(Cl)cccc1Nc1c(-c2ccncc2OCC2COC(C)(C)CO2)[nH]c2c1C(=O)NC1(CCC1)C2 (stereo not drawn) [Example 129, 3′-(3-chloro-2-methoxyanilino)-2′-{3-[(5,5-dimethyl-1,4-dioxan-2-yl)methoxy]pyridin-4-yl}-1′,7′-dihydrospiro[cyclobutane-1,6′-pyrrolo[3,2-c]pyridin]-4′(5′H)-one] | 14 | 293
